Test results reported in patent US10202580B2, “Adult oligodendrocyte-type 2 astrocyte progenitor cell production method” (Japan Science and Technology Agency, priority 2014, dated 2019).

Tested on: proliferating OPC
Assay: Number of cell divisions per colony in TH- or RA-containing medium, oxygen 1.5% by volume (Example 3)
Type: cell-based, rat
Conditions: RA 1 ng/mL; 1.5% O2; 12 days
Method: In addition, unless specifically indicated otherwise, the proliferating OPC used in the following examples were isolated from the optic nerves of 7-day-old rats (P7) in accordance with the immunopanning method of Barres, et al. (Barres, et al., Cell, 1992, Vol. 70, p. 31-46), and the purity thereof (percentage of proliferating OPC relative to all cells) was 99.9% or more.
Proliferating OPC were cultured in medium to which was added thyroid hormone or medium to which was added retinoic acid in an environment having an oxygen concentration of 1.5% by volume followed by investigating the effect of retinoic acid […] on the proliferating OPC.
Six glass bottom culture dishes having a diameter of 12 mm and-coated with PDL were prepared by seeding with 300 proliferating OPC per culture disk, followed by culturing for 12 days at 37° C. in an environment having an oxygen concentration of 1.5% by volume and carbon dioxide concentration of 5% by volume. […]
Following completion of culturing, the numbers of cells that formed colonies were respectively counted and the number of cell divisions was determined for each colony. […]

Q: `CC1=C(/C=C/C(C)=C/C=C/C(C)=C/C(=O)O)C(C)(C)CCC1` [RA, all-trans retinoic acid] was tested. Which “effect on proliferating OPC in a low oxygen environment” value did it give?
A: The value was “able to interrupt proliferation of proliferating OPC and induce differentiation to adult OPC”.
